The source of these data is patent US9556205B2, “Fungicide N-[(trisubstitutedsilyl)methyl]-carboxamide derivatives” (BAYER INTELLECTUAL PROPERTY GMBH, priority 2010, dated 2017).

One may read the logP as the decadic logarithm of the partition coefficient of the neutral form, usually between octanol and water. Low values mean lower lipophilicity, high ones higher lipophilicity.

One series has as its system Septoria tritici. As to the kind of experiment: In vivo preventive test on Septoria tritici (wheat). As to conditions: 500 ppm of active ingredient, evaluated 21 days after inoculation. Here is the method: Solvent: 49 parts by weight of N,N-dimethylacetamide Emulsifier: 1 part by weight of alkylaryl polyglycol ether To produce a suitable preparation of active compound, 1 part by weight of active compound or active compound combination is mixed with the stated amounts of solvent and emulsifier, and the concentrate is diluted with water to the desired concentration. To test for preventive activity, young plants are sprayed with the preparation of active compound or active compound combination at the stated rate of application. After the spray coating has dried on, the plants are sprayed with a spore suspension of Septoria tritici. […] The plants are placed in a greenhouse at a temperature of approximately 15° C. and a relative atmospheric humidity of approximately 80%.

Another series deals with Aspergillus parasiticus. In kind it is cell-based. Conditions: 7 days at 20° C., OD620nm.
Another series deals with Phakopsora pachyrhizi. Put plainly: In vivo protective test on Phakopsora pachyrhizi (soybean rust). Conditions: 250 ppm of active ingredient, evaluated 11 days after inoculation. Here is the method: Solvent: 28.5 parts by weight of acetone
Emulsifier: 1.5 parts by weight of polyoxyethylene alkyl phenyl ether
(§1) To produce a suitable preparation of active compound, 1 part by weight of active compound is mixed with the stated amounts of solvent and emulsifier, and the concentrate is diluted with water to the desired concentration.
To test for protective activity, young plants are sprayed with the preparation of active compound at the stated rate of application. One day after spraying, the plants are inoculated with an aqueous spore suspension of the causal agent of soybean rust (Phakopsora pachyrhizi). The plants are then placed in a greenhouse at approximately 20° C. and a relative atmospheric humidity of approximately 80%.
The test is evaluated 11 days after the inoculation. 0% means an efficacy which corresponds to that of the control, while an efficacy of 100% means that no disease is observed.
Under these conditions, good (at least 80%) to total protection is observed at a dose of 250 ppm of active ingredient with the following compounds from table G: […]

The test system of the next series is Leptosphaeria nodorum. Put plainly: In vivo preventive test on Leptosphaeria nodorum (wheat). Conditions: 500 ppm of active ingredient, evaluated 8 days after inoculation. As to the method: Solvent: 49 parts by weight of N,N-dimethylacetamide Emulsifier: 1 part by weight of alkylaryl polyglycol ether To produce a suitable preparation of active compound, 1 part by weight of active compound or the compound combination is mixed with the stated amounts of solvent and emulsifier, and the concentrate is diluted with water to the desired concentration. To test for protective activity, young plants are sprayed with a preparation of active compound or active compound combination at the stated rate of application. After the spray coating has dried on, the plants are sprayed with a spore suspension of Leptosphaeria nodorum. […] The plants are placed in a greenhouse at a temperature of approximately 15° C. and a relative atmospheric humidity of approximately 80%.

Series [1] can be described thus: log P by HPLC on reversed-phase column (C18), EEC Directive 79/831 Annex V.A8. In kind it is physicochemical. As to conditions: 40° C., 0.1% aqueous formic acid and acetonitrile, linear gradient 10% to 90% acetonitrile. Here is the method:
In table 1, the log P values were determined in accordance with EEC Directive 79/831 Annex V.A8 by HPLC (High Performance Liquid Chromatography) on a reversed-phase column (C18), using the method described below:
Temperature: 40° C.; Mobile phases: 0.1% aqueous formic acid and acetonitrile; linear gradient from 10% acetonitrile to 90% acetonitrile.
Calibration was carried out using unbranched alkan-2-ones (comprising 3 to 16 carbon atoms) with known log P values (determination of the log P values by the retention times using linear interpolation between two successive alkanones). lambda-max-values were determined using UV-spectra from 200 nm to 400 nm and the peak values of the chromatographic signals.

The next series relates to Venturia inaequalis. As to the kind of experiment: In vivo preventive test on Venturia inaequalis (apple scab). As to conditions: 100 ppm of active ingredient, evaluated 10 days after inoculation. As to the method:
Solvent: 24.5 parts by weight of acetone • 24.5 parts by weight of N,N-dimethylacetamide Emulsifier: 1 part by weight of alkylaryl polyglycol ether To produce a suitable preparation of active compound, 1 part by weight of active compound is mixed with the stated amounts of solvent and emulsifier, and the concentrate is diluted with water to the desired concentration. To test for protective activity, young plants are sprayed with the preparation of active compound at the stated rate of application. […] The plants are then placed in a greenhouse at approximately 21° C. and a relative atmospheric humidity of approximately 90%.

The next series deals with Pyrenophora teres. As to the kind of experiment: In vivo preventive test on Pyrenophora teres (barley), Example F. As to conditions: 500 ppm of active ingredient, evaluated 7-9 days after inoculation. Here is the method: (§2) Solvent: 49 parts by weight of N,N-dimethylformamide Emulsifier: 1 part by weight of alkylaryl polyglycol ether To produce a suitable preparation of active compound, 1 part by weight of active compound is mixed with the stated amounts of solvent and emulsifier, and the concentrate is diluted with water to the desired concentration. To test for preventive activity, young plants are sprayed with the preparation of active compound at the stated rate of application. One day after this treatment, the plants are inoculated with an aqueous spore suspension of Pyrenophora teres. […] Then the plants are placed in a greenhouse at a temperature of approximately 20° C. and a relative atmospheric humidity of approximately 80%.

The test system of series [2] is Aflatoxins production by Aspergillus parasiticus. In kind it is cell-based.
In a further series the test system is Alternaria solani. As to the kind of experiment: In vivo preventive test on Alternaria solani (tomato). As to conditions: 500 ppm of active ingredient, evaluated 7 days after inoculation. As to the method:
as §2, with “Alkylarylpolyglycolether” for “alkylaryl polyglycol ether”, “Alternaria solani.” for “Pyrenophora teres.”, “an incubation cabinet” for “a greenhouse”, “at” for “at a temperature of”, “96%.” for “approximately 80%.”

A further series concerns Botrytis cinerea. Put plainly: In vivo preventive test on Botrytis cinerea (beans). As to conditions: 500 ppm of active ingredient, lesion size 2 days after inoculation. As to the method:
Solvent: 24.5 parts by weight of acetone
• 24.5 parts by weight of N,N-dimethylacetamide Emulsifier: 1 part by weight of alkylaryl polyglycol ether
as §1
To test for protective activity, young plants are sprayed with the preparation of active compound. After the spray coating has dried on, 2 small pieces of agar covered with growth of Botrytis cinerea are placed on each leaf. The inoculated plants are placed in a darkened chamber at 20° C. and a relative atmospheric humidity of 100%.
2 days after the inoculation, the size of the lesions on the leaves is evaluated. 0% means an efficacy which corresponds to that of the control, while an efficacy of 100% means that no disease is observed. Under these conditions, excellent (at least 95%) to total protection is observed at a dose of 500 ppm of active ingredient with the following compounds from table C: […]

For the molecule `Cn1nc(C(F)F)c(C(=O)N(C[Si](C)(C)c2ccccc2Cl)C2CC2)c1F` [Example 18], the Efficacy in the series with Septoria tritici is 100%; with Phakopsora pachyrhizi, 80%; in the series on Leptosphaeria nodorum, 100%; in the series on Venturia inaequalis, 99%; in the series with Pyrenophora teres, 100%; in the series on Alternaria solani it was 100%. In the series on Aspergillus parasiticus, the “% Inhibition of fungal growth at 50 μM” value is 100%. In addition, the logP in series [1] is 4.13. Also, the “% Inhibition of Aflatoxin at 50 μM” value in series [2] came to 100%.

In the case of `Cc1nn(C)c(F)c1C(=O)N(C[Si](C)(C)c1ccccc1Cl)C1CC1` [Example 19], the Efficacy in the series on Septoria tritici is listed as 100%; in the series with Botrytis cinerea, 100%; in the series with Leptosphaeria nodorum, 100%; in the series with Venturia inaequalis it was 99%; in the series on Pyrenophora teres, 100%; with Alternaria solani it was 100%. Besides, the logP in [1] is recorded as 3.60.

With `Cc1nn(C)c(F)c1C(=O)N(C[Si](C)(C)c1cccc(Cl)c1)C1CC1` [Example 27], the Efficacy is recorded as 100% in the series with Septoria tritici; 98% in the series with Botrytis cinerea; 100% in the series with Leptosphaeria nodorum; 100% in the series on Venturia inaequalis; 100% with Pyrenophora teres; 94% in the series with Alternaria solani. Also, in series [1], the logP is listed as 3.67.

For the molecule `Cn1nc(C(F)F)c(C(=O)N(C[Si](C)(C)c2cccc(Cl)c2)C2CC2)c1F` [Example 31], the Efficacy in the series on Septoria tritici is listed as 100%; in the series on Botrytis cinerea it was 95%; in the series with Phakopsora pachyrhizi, 100%; in the series with Leptosphaeria nodorum, 100%; in the series on Venturia inaequalis, 100%; in the series with Pyrenophora teres, 100%. Moreover, the Efficacy in the series with Alternaria solani came to 100%. Besides, the “% Inhibition of fungal growth at 50 μM” value in the series with Aspergillus parasiticus is recorded as 100%. In addition, the logP in series [1] was determined as 4.18. Further, the “% Inhibition of Aflatoxin at 50 μM” value in series [2] is listed as 100%.

Consider `Cn1nc(C(F)F)c(C(=O)N(C[Si](C)(C)c2ccc(Cl)cc2Cl)C2CC2)c1F` [Example 38], for which the Efficacy with Septoria tritici amounted to 100%; in the series on Botrytis cinerea it was 95%; in the series with Phakopsora pachyrhizi it was 85%; in the series on Leptosphaeria nodorum, 100%; in the series on Venturia inaequalis it was 100%; with Pyrenophora teres, 100%. The Efficacy in the series on Alternaria solani turned out to be 94%. In addition, the “% Inhibition of fungal growth at 50 μM” value with Aspergillus parasiticus is listed as 100%. The same molecule returned a logP in series [1] of 4.78. In addition, the “% Inhibition of Aflatoxin at 50 μM” value in series [2] was found to be 100%.

As to `Cn1cc(C(=O)N(C[Si](C)(C)c2ccc(Cl)cc2Cl)C2CC2)c(C(F)F)n1` [Example 41], the Efficacy in the series on Septoria tritici was 100%; in the series on Botrytis cinerea, 98%; in the series on Leptosphaeria nodorum it was 95%; with Venturia inaequalis it was 100%; in the series on Pyrenophora teres it was 100%; in the series with Alternaria solani it was 100%. The molecule further had a logP in series [1] of 4.41.

In the case of `CCc1nn(C)c(F)c1C(=O)N(C[Si](C)(C)c1ccc(Cl)cc1Cl)C1CC1` [Example 42], the Efficacy with Septoria tritici amounted to 100%; in the series on Botrytis cinerea, 100%; in the series on Leptosphaeria nodorum it was 100%; with Venturia inaequalis, 99%; in the series on Pyrenophora teres, 100%; in the series with Alternaria solani, 100%. In addition, in series [1], the logP worked out at 4.78.

Turning to `CCc1nn(C)c(F)c1C(=O)N(C[Si](C)(C)c1cc(Cl)cc(Cl)c1)C1CC1` [Example 49], the Efficacy with Septoria tritici stood at 100%; in the series with Leptosphaeria nodorum, 94%; in the series on Venturia inaequalis it was 96%; with Pyrenophora teres, 100%; in the series with Alternaria solani, 94%. Moreover, in [1], the logP is 4.78.

`Cn1nc(C(F)F)c(C(=O)N(C[Si](C)(C)Cc2ccccc2)C2CC2)c1F` [Example 55]: the Efficacy in the series on Septoria tritici came out at 90%; with Botrytis cinerea, 100%; in the series with Leptosphaeria nodorum, 100%; in the series on Venturia inaequalis, 100%; in the series on Pyrenophora teres it was 100%; in the series on Alternaria solani, 100%. The “% Inhibition of fungal growth at 50 μM” value with Aspergillus parasiticus amounted to 99%. Moreover, in series [1], the logP amounted to 4.03. In addition, the “% Inhibition of Aflatoxin at 50 μM” value in [2] came out at 100%.
